In patent publication US10842806B2, “Methods for treating ocular inflammatory disorders” (Massachusetts Eye and Ear Infirmary, priority 2011, dated 2020):

Key:
[1] = system: endotoxin-induced uveitis (EIU); test: Histopathologic evaluation of EIU eyes (iris-ciliary body); format: in vivo, Lewis rats; conditions: AICAR 50 mg/kg pretreatment, 24 h after LPS
Protocol: Male Lewis rats ranging from 6-8 weeks old (Charles River, Wilmington, Mass.) were used for these studies. To study the effects of AICAR pretreatment, AICAR and PBS (for placebo treatment) were delivered via intraperitoneal injection of AICAR (50 mg/kg or 100 mg/kg body weight; Sigma) diluted in 150 μl PBS or equal volume of PBS at 6 hours before and at the same time as LPS injection. Four experimental groups of rats were compared: (1) Normal: no treatment (2) AICAR: normal rats treated with AICAR 6 hours before examination; (3) LPS: EIU rats treated with PBS; (4) LPS+AICAR: EIU rats treated with AICAR. Two additional groups of rats were used to study the effects of AICAR (50 mg/kg) given either at the same time as LPS injection or at 6 hours after LPS injection. For histopathologic evaluations, EIU rats were euthanized 24 hours after LPS injection. The eyes were enucleated immediately and stored in 10% formalin solution. The eyes were then embedded in paraffin, and 10 μm sagittal sections were cut and stained with hematoxylin and eosin. For histopathologic evaluation, the anterior chamber and posterior chamber around the iris-ciliary body complex were examined with light microscopy.

[2] = system: adherent leukocytes in retinal vessels; test: Leukocyte adhesion to retinal vessels (Concanavalin A lectin staining); format: in vivo, Lewis rats
Protocol: Male Lewis rats ranging from 6-8 weeks old (Charles River, Wilmington, Mass.) were used for these studies. To study the effects of AICAR pretreatment, AICAR and PBS (for placebo treatment) were delivered via intraperitoneal injection of AICAR (50 mg/kg or 100 mg/kg body weight; Sigma) diluted in 150 μl PBS or equal volume of PBS at 6 hours before and at the same time as LPS injection. Four experimental groups of rats were compared: (1) Normal: no treatment (2) AICAR: normal rats treated with AICAR 6 hours before examination; (3) LPS: EIU rats treated with PBS; (4) LPS+AICAR: EIU rats treated with AICAR. Two additional groups of rats were used to study the effects of AICAR (50 mg/kg) given either at the same time as LPS injection or at 6 hours after LPS injection. Inflammation in the posterior segment of the eye is seen in EIU with the adherence of recruited leukocytes to the retinal vascular endothelium (Koizumi et al. (2003) INVEST. OPHTHALMOL. VIS. SCI. 44:2184-2191). Leukocyte adhesion to the retinal vessels was evaluated at 24 hours after EIU induction by using the Concanavalin A (Con A) lectin staining technique (Smith et al. (1994) INVEST. OPHTHALMOL. VIS. SCI. 35:101-111). […] The flatmounts were imaged using an epifluorescence microscope (DM RXA; Leica) and the total number of Con A-stained adherent leukocytes per retina was counted.

[3] = system: experimental autoimmune uveitis (EAU); test: Histological scoring of EAU (H&E sections); format: in vivo, C57BL/6 (WT) mice
[4] = system: TNF-α, IL-6 and IFN-γ in the retina; test: Retinal cytokine mRNA (real-time PCR) and protein (ELISA) in EAU mice; format: in vivo, C57BL/6 (WT) mice
[5] = system: IRBP-reactive T cells (LN cells); test: LN cells from untreated EAU mice cultured with IRBP peptide in the presence of AICAR; format: cell-based
Protocol: To measure cell proliferation, LN cells were resuspended at 5×10^5 cells per 200 μl of medium in 96-well flat-bottom plates. Cells were incubated for 72 hours and proliferation during the last 12 hours was measured by using a bromodeoxyuridine (BrdU) cell proliferation assay kit (Millipore, Billerica, Mass.). Supernatant in the culture medium was collected at 48 hours and cytokine production in the supernatant was measured by ELISA using the Quantikine mouse IFN-γ, IL-4, IL-10 and IL-17 kits (R&D system, Minneapolis, Minn.).
To assess the effect of AICAR on already developed IRBP-specific T cells, LN cells from untreated EAU mice were cultured with IRBP peptide in the presence of AICAR (FIGS. 10A-10E). Specifically, LN cells were resuspended at 5×10^5 cells per 200 μl of medium in 96-well flat-bottom plates. Triplicate samples of cells were stimulated with or without IRBP at the indicated concentrations. AICAR was added at the indicated concentrations. Cell proliferation and cytokine production were measured as previously described in Example 10.

WT BMDCs = test: LPS-stimulated BMDC maturation (FACS) and cytokine production (ELISA); format: cell-based, mice
Protocol: BMDCs were generated as previously described (Wang et al. (2005) IMMUNOL. LETT. 98:123-130). Briefly, bone marrow was flushed from the femurs and tibias of naive mice (6 to 8-week-old WT or AMPKα1 KO mice). The red blood cells were lysed using Red Blood Cell Lysing Buffer (Sigma). Approximately 2×10^6 cells were cultured in complete medium (RPMI 1640 medium containing 10% FBS, […], 10 mM HEPES [pH 7.4], 2 mM glutamine, 100 U/ml penicillin, and […]) including 10 ng/ml GM-CSF (Pepro Tech, London, England). Fresh media was added to the cells on day 4 of culture, and nonadherent cells and loosely adherent cells were collected as immature DCs on day 7. Immature DCs were stimulated with 100 ng/ml LPS (Salmonella typhimurium; Sigma) for 24 hours to obtain mature DCs. In some experiments, AICAR was added to the culture. […] After LPS stimulation for 24 hours, supernatant of the BMDC culture was collected and IL-6, TNF-α and IL12/23 p40 concentrations were measured (R&D system).

[6] = AICAR 200 mg/kg treated EAU mice vs control EAU mice
[7] = 100 ng/ml LPS 24 hours with AICAR, dose-dependent manner
[8] = LPS stimulation for 24 hours with AICAR, ELISA

Which “Number of leukocytes infiltrated around the iris-ciliary body (histopathology)” value [1] does the source give for `NC(=O)c1ncn([C@@H]2O[C@H](CO)[C@@H](O)[C@H]2O)c1N` [AICAR, 5-aminoimidazole-4-carboxamide-1-β-d-ribofuranoside] here?
The value was “suppressed”.

And the “Number of Con A-stained adherent leukocytes per retina” value ([2]; AICAR 50 mg/kg pretreatment, 24 h after LPS, n=11, EIU rats 1163±244)?
Its value is 576±249 cells.

And the “Adherent leukocytes in AICAR-only-treated rats” value ([2]; normal rats, AICAR only, n=6)?
Its value is “few adherent leukocytes”.

What about the “EAU mean pathologic score” value ([3]; AICAR 200 mg/kg i.p. daily day 0 to 21, day 21, scale 0-4, control 1.65±0.68) of the same compound?
Its value is 0.53±0.73.

What about the “EAU mean pathologic score, effector phase treatment” value ([3]; AICAR administered from day 8 to 21 after immunization, n=8, controls 1.03±0.75) of the same compound?
The value was 0.13±0.27.

And the “IFN-γ mRNA in retina” value [4, 6]?
The value was “significantly reduced”.

What about the “IL-6 mRNA in retina” value [4, 6] of the same compound?
Its value is “significantly reduced”.

And the “TNF-α mRNA in retina” value [4, 6]?
Its value is “significantly reduced”.

And the “IL-6 protein level in retina” value ([4]; AICAR 200 mg/kg treated EAU mice, 21 days after immunization, ELISA)?
Its value is “suppressed”.

And the “IFN-γ production in vitro” value [5]?
Its value is “suppressed”.

What about the “IL-4 production in vitro” value [5] of the same compound?
Its value is “not significantly induced”.

What about the “IL-10 production in vitro” value [5] of the same compound?
Its value is “suppressed”.

And the “IL-17 production in vitro” value [5]?
Its value is “suppressed”.

And the “T cell proliferation in vitro” value [5]?
The value was “suppressed”.

And the “CD40 expression on BMDCs” value (WT BMDCs; [7])?
Its value is “significantly suppressed”.

And the “CD80 expression on BMDCs” value (WT BMDCs; [7])?
The value was “significantly suppressed”.

And the “CD86 expression on BMDCs” value (WT BMDCs; [7])?
Its value is “significantly suppressed”.

What about the “I-A^b expression on BMDCs” value (WT BMDCs; [7]) of the same compound?
The value was “significantly suppressed”.

And the “IL-6 production in BMDCs” value (WT BMDCs; [8])?
Its value is “significantly suppressed”.

And the “IL-12/23 p40 production in BMDCs” value (WT BMDCs; [8])?
The value was “significantly suppressed”.

And the “TNF-α production in BMDCs” value (WT BMDCs; [8])?
Its value is “significantly suppressed”.
